Test results: patent publication US10316371B2, “Screening methods for identifying specific Staphylococcus aureus inhibitors” (TRANA DISCOVERY, INC., priority 2011, dated 2019)
Converted amounts (≈) assume the structure as drawn. Read-outs that look alike come from different tables or passages of the source.

Key:
K. pneumoniae UMM = experiment: MIC; type: cell-based; conditions: Klebsiella pneumoniae; K. pneumoniae UMM; read-out: MIC
S. pneumoniae 49619 = experiment: MIC; type: cell-based; conditions: Streptococcus pneumoniae; S. pneumoniae 49619; read-out: MIC
Experimental: (§1) The compounds were re-tested against other bacteria, including Staphylococcus epidermidis (ATCC 35984), Staphylococcus epidermidis (MRSE), E. faecium 134529, E. faecium 145494, […], E. faecium 161651, S. pneumoniae 49619, and S. pneumoniae 149389.
(§2) A series of compounds were evaluated for their activity against drug resistant S. aureus, including MSSA and MRSA strains.

E. faecalis 29212 = experiment: MIC; type: cell-based; conditions: Enterococcus faecalis; E. faecalis 29212; read-out: MIC
Experimental: as §1, §2

E. faecalis 161651 = experiment: MIC; type: cell-based; conditions: Enterococcus faecalis; E. faecalis 161651; read-out: MIC
Experimental: as §1, §2

S. pneumoniae 149389 = experiment: MIC; type: cell-based; conditions: Streptococcus pneumoniae; S. pneumoniae 149389; read-out: MIC
Experimental: as §1, §2

E. faecium 145494 = experiment: MIC; type: cell-based; conditions: Enterococcus faecium; E. faecium 145494; read-out: MIC
Experimental: as §1, §2

E. faecium 134529 = experiment: MIC; type: cell-based; conditions: Enterococcus faecium; E. faecium 134529; read-out: MIC
Experimental: as §1, §2

S. epidermidis MRSE 01 = experiment: MIC; type: cell-based; conditions: Staphylococcus epidermidis; S. epidermidis MRSE 01; read-out: MIC
Experimental: as §1, §2

S. epidermidis 35984 = experiment: MIC; type: cell-based; conditions: Staphylococcus epidermidis; S. epidermidis 35984; read-out: MIC
Experimental: as §1, §2

Mammalian Cell Toxicity [1] = type: cell-based; conditions: mouse, 3T3 cells
[2] = tested on: S. aureus specific Arg ASL (anticodon stem loop) RNA oligomer interaction with programmed ribosomes; experiment: Fluorescence polarization assay of Arg ASL / programmed ribosome complex (HTS and dose response); type: binding, S. aureus Arg ASL; E. coli 70S ribosomes; conditions: 6 pt dose response, fluorescence polarization after 4 hours at 25° C., corrected for auto-fluorescence
Excerpt: The assay requires the following materials: • Ribosomes—isolated from E. coli or S. aureus • fMet tRNA (Sigma or Chemical Block, Moscow) • mRNA (including the S-D sequence, the “box” sequence, the codon for methionine, and the codon for arginine that is specific for S. aureus, AGA, optionally with additional base pairs to the left of the S-D sequence and/or to the right of the codon for arginine) • Fluorescently labeled Arg ASL oliogomer • Buffer—HAM20,β • 384 well high binding micro titer plates (Matrix Technologies #4319, sold by Fischer Scientific as cat #50823855), or other appropriate plates for use in high throughput screening • Filtration (Sartorius Stedium 100 Kdalton VC 1042) or centrifugation for complex purification • EDTA—negative control (binding antagonist) • Neomycin—A-site binding enhancer (binding agonist)
A ribosome complex was prepared using the above materials and then purified prior to use in the assay. The prepared complex can be stored in concentrated form at −80° C. The complexes were diluted in buffer and dispensed onto plates. […] Fluorescence polarization was measured at approximately 4 hours after dispensing onto the micro-titer plates.
ASL^Arg was first heated for 2 min at 90° C. in water, after addition of 1/10 V of 10× buffer incubation continued on ice for at least 10 min. Prior to complex formation 70S ribosomes and tRNA were reactivated in buffer for 5 min at 45° C. followed by 10 min at 37° C.; mRNA was heated in buffer at 37° C. for 5 min. • (1000 μl×(2 μM E. coli 70S ribosomes+10 μM mRNA-Arg+4 μM tRNA^fmet)/HAM20,β→30 min @ 37° C.,+1000 μl×(0.2 μM neomycin+[…]))→20 min @ 37° C., overnight on ice • Final complex: (2000 pm P+2000 pm ASL)/2 ml=1 μM P+1 μM ASL HAM20,β:
Preparation of Complexes: The purified complex was diluted in ice cold HAM20,β such that the total fluorescence was approximately 2,000,000 units per 5 μL.
20 μl of the diluted complex was added to all 384 well plates (except for blank wells, which received 20 μL of HAM20 only, without complex) using Multidrop dispenser after which the plates were incubated at 25° C. for 4 hours (target 4.5 hours for middle of batch). Plates were then analyzed for fluorescence polarization in Analyst HT fluorescence plate reader and the following instrument settings:
The parallel and perpendicular fluorescence values of experimental wells were automatically corrected for the corresponding values obtained from the blank wells. The fluorescence polarization was calculated as following: P=(I−Ip)/(I+Ip), wherein Ip—is perpendicular fluorescence and I—is parallel fluorescence.
The percent of effect of experimental compounds was calculated as following: %-Inh=(P0−Pc)/(P0−P100)*100, wherein P0—is average polarization in 0%—inhibition control wells, P100—is average polarization in 100%—inhibition control wells, and Pc—is polarization in compound well.
The 3 sigma HTS hits were cherry picked and retested in 6 pt dose response format, using 3× serial dilution and the top nominal concentration of 100 uM.
The compounds were serially diluted in 10% DMSO and plated into 384 well plates (in a volume of 5 μL) to achieve the nominal final concentration raging from 100 μM to 0.4 μM. The plates received 20 μl of the diluted complex following incubation at 25° C. for 4 hours. Plates were then analyzed for fluorescence polarization as described above (see HTS section).
In parallel, the compounds were tested for auto-fluorescence. To this end, the compounds were plated (using the same dilution protocol) into 384 well plates. The plates received 20 μL of the HAM20 assay buffer only (without complex). The plates were incubated for 4 hrs and then were analyzed for fluorescence polarization as described above.

E. coli 25922 = experiment: MIC; type: cell-based; conditions: Escherichia coli; E. coli 25922; read-out: MIC
[3] = tested on: SA 22 (Staphylococcus aureus 22); experiment: MIC; type: cell-based; conditions: SA 22, read-out: MIC
Experimental: (§3) The strains included Staphylococcus aureus, Methicillin Resistant (ATCC 33591), Methicillin-Resistant Staphylococcus aureus USA300, Staphylococcus aureus 158, Staphylococcus aureus 22, Staphylococcus aureus 2, Staphylococcus aureus (ATCC 29213), and Staphylococcus aureus 182.
as §2

[4] = tested on: SA 29213 (Staphylococcus aureus (ATCC 29213)); experiment: MIC; type: cell-based; conditions: ATCC29213, SA 29213, read-out: MIC
Experimental: as §3, §2

[5] = tested on: SA USA 300 (Methicillin-Resistant Staphylococcus aureus USA300); experiment: MIC; type: cell-based; conditions: SA USA 300, read-out: MIC
Experimental: as §3, §2

[6] = tested on: SA 158 (Staphylococcus aureus 158); experiment: MIC; type: cell-based; conditions: SA 158, read-out: MIC
Experimental: as §3, §2

[7] = tested on: SA 2 (Staphylococcus aureus 2); experiment: MIC; type: cell-based; conditions: SA 2, read-out: MIC
Experimental: as §3, §2

[8] = tested on: SA 33591 (Staphylococcus aureus, Methicillin Resistant (ATCC 33591)); experiment: MIC; type: cell-based; conditions: ATCC33591, SA 33591, read-out: MIC
Experimental: as §3, §2

[9] = tested on: SA 182 (Staphylococcus aureus 182); experiment: MIC; type: cell-based; conditions: SA 182, read-out: MIC
Experimental: as §3, §2

E. coli ESBL 4 = experiment: MIC; type: cell-based; conditions: Escherichia coli, ESBL4; E. coli ESBL 4; read-out: MIC
Mammalian Cell Toxicity [10] = type: cell-based; conditions: human, MRC5 cells
K. pneumoniae 700603 = experiment: MIC; type: cell-based; conditions: Klebsiella pneumoniae; K. pneumoniae 700603; read-out: MIC

| SMILES | MIC (K. pneumoniae UMM) [µg/mL] | MIC (S. pneumoniae 49619) [µg/mL] | MIC (E. faecalis 29212) [µg/mL] | MIC (E. faecalis 161651) [µg/mL] | MIC (S. pneumoniae 149389) [µg/mL] | MIC (E. faecium 145494) [µg/mL] | MIC (E. faecium 134529) [µg/mL] | MIC (S. epidermidis MRSE 01) [µg/mL] | MIC (S. epidermidis 35984) [µg/mL] | CC50 (Mammalian Cell Toxicity [1]) [µg/mL] | MIC (E. coli 25922) [µg/mL] | MIC [3] [µg/mL] | MIC [4] [µg/mL] | MIC [5] [µg/mL] | MIC [6] [µg/mL] | MIC [7] [µg/mL] | MIC [8] [µg/mL] | MIC [9] [µg/mL] | MIC (E. coli ESBL 4) [µg/mL] | CC50 (Mammalian Cell Toxicity [10]) [µg/mL] | other results |
| --- | --- | --- | --- | --- | --- | --- | --- | --- | --- | --- | --- | --- | --- | --- | --- | --- | --- | --- | --- | --- | --- |
| Oc1ccccc1N=Cc1c(O)c(Br)cc2oc3c(c12)CCCC3 [Compound 136, 3-bromo-1-{[(2-hydroxyphenyl)imino]methyl}-6,7,8,9-tetrahydrodibenzo[b,d]furan-2-ol] | > 128 | > 128 | 128 (≈ 331 µM) | 128 (≈ 331 µM) | > 128 | > 128 | 64 (≈ 166 µM) | 8 (≈ 20.7 µM) | 64 (≈ 166 µM) | 2.3 (≈ 5.95 µM) | > 128 | 16 (≈ 41.4 µM) | 32 (≈ 82.8 µM) | 128 (≈ 331 µM) | 32 (≈ 82.8 µM) | 16 (≈ 41.4 µM) | 32 (≈ 82.8 µM) | > 128 | > 128 | 6.8 (≈ 17.6 µM) | IC50 ([2]; read-out: IC50): 80 µM; MIC (K. pneumoniae 700603): > 128 µg/mL |
| O=C(O)C(c1ccccc1)N1C(=O)C(=Cc2c[nH]c3ccccc23)SC1=S (stereo not shown) [Compound 537, [5-(1H-indol-3-ylmethylene)-4-oxo-2-thioxo-1,3-thiazolidin-3-yl](phenyl)acetic acid] | > 128 | 32 (≈ 81.1 µM) | 128 (≈ 324 µM) | 128 (≈ 324 µM) | 64 (≈ 162 µM) | > 128 | 128 (≈ 324 µM) | 128 (≈ 324 µM) | 128 (≈ 324 µM) | 20 to 64 (≈ 50.7 to 162 µM) | > 128 | 64 (≈ 162 µM) | 64 (≈ 162 µM) | 64 (≈ 162 µM) | 64 (≈ 162 µM) | 128 (≈ 324 µM) | 64 (≈ 162 µM) | 64 (≈ 162 µM) | > 128 | 38 (≈ 96.3 µM) | IC50 [2]: agonist; MIC (K. pneumoniae 700603): > 128 µg/mL |
| CN1CCN(c2nc(C=Cc3ccccc3)nc3ccccc23)CC1 [Compound #096, 4-(4-methyl-1-piperazinyl)-2-(2-phenylvinyl)quinazoline] | > 128 | 64 (≈ 194 µM) | 128 (≈ 387 µM) | 128 (≈ 387 µM) | 64 (≈ 194 µM) | 128 (≈ 387 µM) | 64 (≈ 194 µM) | 128 (≈ 387 µM) | > 128 | 51.5 (≈ 156 µM) | > 128 | 64 (≈ 194 µM) | 64 (≈ 194 µM) | 64 (≈ 194 µM) | 128 (≈ 387 µM) | 32 (≈ 96.8 µM) | > 128 | 128 (≈ 387 µM) | > 128 | 62 (≈ 188 µM) | IC50 ([2]; read-out: IC50): 91 µM; MIC (K. pneumoniae 700603): > 128 µg/mL |
| COc1ccc2c(c1)c(=O)oc1c(C)c(OC(C(=O)O)c3ccccc3)ccc12 (stereo not shown) [Compound #211, [(8-methoxy-4-methyl-6-oxo-6H-benzo[c]chromen-3-yl)oxy](phenyl)acetic acid] | > 128 | 32 (≈ 82 µM) | 128 (≈ 328 µM) | 128 (≈ 328 µM) | 128 (≈ 328 µM) | > 128 | > 128 | > 128 | > 128 | 28 (≈ 71.7 µM) | > 128 | 128 (≈ 328 µM) | 128 (≈ 328 µM) | 128 (≈ 328 µM) | 128 (≈ 328 µM) | 128 (≈ 328 µM) | > 128 | 128 (≈ 328 µM) | > 128 | 26 (≈ 66.6 µM) | IC50 [2]: agonist; MIC (K. pneumoniae 700603): > 128 µg/mL |
